How the values were obtained:
[1] = target: T1, NS5B 4a isolate 2 (Hepatitis C virus genotype 4a, UniProt O39929)
[2] = target: T2, NS5B 6a isolate 5 (Hepatitis C virus genotype 6a, UniProt O39927); assay: biochemical
[3] = target: T2, NS5B 6a isolate 5
[4] = target: NS5B 1a isolate 4 (Hepatitis C virus genotype 1a, UniProt P27958)
[5] = target: NS5B 1a isolate 2 (Hepatitis C virus genotype 1a, UniProt P27958)
[6] = target: NS5B 2b isolate 2 (Hepatitis C virus genotype 2b, UniProt P26661)
[7] = target: NS5B 1b isolate 3 (Hepatitis C virus genotype 1b, UniProt Q9WMX2)
[8] = target: T3, NS5B 4a isolate 3 (Hepatitis C virus genotype 4a, UniProt O39929); assay: biochemical
[9] = target: T3, NS5B 4a isolate 3
[10] = target: T4, NS5B 4a isolate 1 (Hepatitis C virus genotype 4a, UniProt O39929)
[11] = target: NS5B 1a isolate 3 (Hepatitis C virus genotype 1a, UniProt P27958)
[12] = target: NS5B 5a isolate 4 (Hepatitis C virus genotype 5a, UniProt O39928); assay: Enzyme binding affinity, SPR (Biacore); design: species or system HCV
[13] = target: NS5B 1b isolate 2 (Hepatitis C virus genotype 1b, UniProt Q9WMX2)
[14] = target: NS5B 1a isolate 1 (Hepatitis C virus genotype 1a, UniProt P27958)
[15] = target: T4, NS5B 4a isolate 1; assay: biochemical
[16] = target: T1, NS5B 4a isolate 2; assay: biochemical
[17] = system: HCV type 1b replicon in Huh-7 luc/neo (Huh-Luc) cells; assay: HCV replicon assay (Huh-Luc, luciferase); conditions: Hepatitis C virus, Huh-7, 72 h
[18] = target: HCV NS5B 1bJ4 (Hepatitis C virus genotype 1b (strain HC-J4) (HCV), UniProt O92972); assay: Inhibition assay with NS5b 1bJ4 (RdRp, SPA); format: biochemical; conditions: 50 nM NS5B 1bJ4 enzyme, radiolabeled GTP incorporation
Sequence of HCV NS5B 1bJ4 (O92972 whole entry, looked up): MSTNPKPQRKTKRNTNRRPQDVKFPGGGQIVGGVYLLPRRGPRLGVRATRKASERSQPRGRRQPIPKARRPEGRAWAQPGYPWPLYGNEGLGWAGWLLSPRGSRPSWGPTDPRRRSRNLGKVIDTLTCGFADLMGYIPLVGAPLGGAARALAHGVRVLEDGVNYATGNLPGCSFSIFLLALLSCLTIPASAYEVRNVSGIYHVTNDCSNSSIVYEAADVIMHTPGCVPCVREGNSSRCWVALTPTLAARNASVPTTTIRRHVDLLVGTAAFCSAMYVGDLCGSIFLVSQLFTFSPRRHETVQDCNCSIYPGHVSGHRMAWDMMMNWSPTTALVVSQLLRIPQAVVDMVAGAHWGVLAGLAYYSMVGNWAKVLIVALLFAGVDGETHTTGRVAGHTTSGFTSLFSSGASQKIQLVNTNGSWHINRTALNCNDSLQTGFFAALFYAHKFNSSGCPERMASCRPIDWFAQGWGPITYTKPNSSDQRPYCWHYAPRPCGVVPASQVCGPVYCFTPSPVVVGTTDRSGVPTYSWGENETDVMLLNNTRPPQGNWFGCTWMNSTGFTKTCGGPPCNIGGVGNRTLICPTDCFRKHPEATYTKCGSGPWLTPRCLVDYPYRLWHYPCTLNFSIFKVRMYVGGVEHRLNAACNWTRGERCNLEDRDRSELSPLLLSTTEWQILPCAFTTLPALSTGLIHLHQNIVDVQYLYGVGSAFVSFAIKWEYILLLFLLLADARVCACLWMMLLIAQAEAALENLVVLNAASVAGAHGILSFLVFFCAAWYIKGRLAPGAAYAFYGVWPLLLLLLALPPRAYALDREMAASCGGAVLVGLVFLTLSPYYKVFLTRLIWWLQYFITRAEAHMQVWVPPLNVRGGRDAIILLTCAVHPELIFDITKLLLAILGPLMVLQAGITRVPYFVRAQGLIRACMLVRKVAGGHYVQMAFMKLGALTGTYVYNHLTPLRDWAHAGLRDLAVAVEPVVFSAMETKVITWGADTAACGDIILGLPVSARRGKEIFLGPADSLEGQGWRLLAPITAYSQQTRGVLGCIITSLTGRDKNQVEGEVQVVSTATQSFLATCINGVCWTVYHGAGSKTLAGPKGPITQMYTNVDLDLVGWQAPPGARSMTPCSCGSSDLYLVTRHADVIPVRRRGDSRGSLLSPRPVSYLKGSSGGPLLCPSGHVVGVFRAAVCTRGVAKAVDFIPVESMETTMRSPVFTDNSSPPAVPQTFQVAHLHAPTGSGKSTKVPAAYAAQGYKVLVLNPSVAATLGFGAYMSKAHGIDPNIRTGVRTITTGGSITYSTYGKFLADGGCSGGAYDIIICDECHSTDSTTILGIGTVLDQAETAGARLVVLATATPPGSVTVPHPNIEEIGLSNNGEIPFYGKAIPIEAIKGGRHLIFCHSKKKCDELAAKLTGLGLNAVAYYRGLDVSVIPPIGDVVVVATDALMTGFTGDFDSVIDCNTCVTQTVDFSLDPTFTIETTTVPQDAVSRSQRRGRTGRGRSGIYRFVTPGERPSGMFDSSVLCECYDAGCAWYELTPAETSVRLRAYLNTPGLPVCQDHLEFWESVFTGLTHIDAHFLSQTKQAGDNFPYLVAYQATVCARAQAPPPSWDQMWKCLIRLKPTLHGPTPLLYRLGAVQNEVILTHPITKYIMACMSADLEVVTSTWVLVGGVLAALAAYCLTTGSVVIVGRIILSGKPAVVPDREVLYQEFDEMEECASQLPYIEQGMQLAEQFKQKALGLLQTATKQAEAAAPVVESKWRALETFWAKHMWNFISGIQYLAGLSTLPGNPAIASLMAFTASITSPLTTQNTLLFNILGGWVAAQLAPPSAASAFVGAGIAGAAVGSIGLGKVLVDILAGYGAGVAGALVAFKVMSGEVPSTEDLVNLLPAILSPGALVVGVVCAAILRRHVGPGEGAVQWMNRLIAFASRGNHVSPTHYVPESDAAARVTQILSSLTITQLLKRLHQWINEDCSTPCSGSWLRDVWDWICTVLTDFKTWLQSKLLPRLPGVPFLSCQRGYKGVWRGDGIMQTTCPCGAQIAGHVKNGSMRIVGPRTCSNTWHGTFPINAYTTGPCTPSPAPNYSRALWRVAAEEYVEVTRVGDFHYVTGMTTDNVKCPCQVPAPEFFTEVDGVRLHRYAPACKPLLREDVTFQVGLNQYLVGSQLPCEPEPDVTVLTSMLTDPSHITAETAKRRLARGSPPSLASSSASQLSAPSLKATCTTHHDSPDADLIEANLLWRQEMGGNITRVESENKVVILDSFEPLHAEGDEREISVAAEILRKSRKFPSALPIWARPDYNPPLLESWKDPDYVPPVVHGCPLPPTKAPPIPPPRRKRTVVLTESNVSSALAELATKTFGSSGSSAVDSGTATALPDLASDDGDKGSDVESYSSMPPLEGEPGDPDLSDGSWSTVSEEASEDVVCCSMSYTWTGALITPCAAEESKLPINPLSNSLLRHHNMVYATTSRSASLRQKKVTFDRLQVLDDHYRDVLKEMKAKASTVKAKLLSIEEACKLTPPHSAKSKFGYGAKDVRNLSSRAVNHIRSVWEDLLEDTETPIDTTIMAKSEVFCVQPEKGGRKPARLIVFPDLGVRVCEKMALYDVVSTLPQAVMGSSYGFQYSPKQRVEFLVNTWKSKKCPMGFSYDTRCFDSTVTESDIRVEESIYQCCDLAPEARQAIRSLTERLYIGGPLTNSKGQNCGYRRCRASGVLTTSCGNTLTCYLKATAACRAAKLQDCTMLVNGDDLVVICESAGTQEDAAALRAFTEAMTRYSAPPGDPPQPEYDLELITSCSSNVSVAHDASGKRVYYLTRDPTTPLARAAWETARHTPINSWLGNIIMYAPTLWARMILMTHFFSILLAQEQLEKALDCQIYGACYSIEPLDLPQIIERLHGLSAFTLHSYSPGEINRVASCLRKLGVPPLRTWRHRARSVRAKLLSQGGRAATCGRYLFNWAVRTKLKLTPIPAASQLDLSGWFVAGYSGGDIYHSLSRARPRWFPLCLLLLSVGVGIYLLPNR

[19] = target: HCV NS5B con1b (Hepatitis C virus genotype 1b (isolate Con1) (HCV), UniProt Q9WMX2); assay: RNA-dependent RNA polymerase assay NS5B con1b; conditions: read-out: IC50 Con1b; 20 nM Con1b NS5B enzyme, primer-dependent transcription assay
Protocol: Fifty-percent inhibitory concentrations (Table 1: IC50 con1b) were determined according to the method as described previously (Pauwels et al, 2007, J Virol 81:6909-19) using a primer-dependent transcription assay. […] 600 nM GTP and 0.13 μCi of [^3H]GTP was then added to initiate the 40-μl reaction mixture, which was then incubated at room temperature for 2 h before the reaction was stopped by addition of 40-μl streptavidin-coated SPA beads.

| Structure (SMILES) | EC50 [17] [nM] | other results |
| --- | --- | --- |
| COc1ccc2c(c1)C=C1Cn3c-2c(C2CCCCC2)c2ccc(cc23)C(=O)NS(=O)(=O)N(C)CCOCCN(C)C1=O [Compound 1] | – | t1/2 [1]: 30.1 min; Kd [2]: 32 nM; t1/2 [3]: 7.3 min; t1/2 [4]: 14.9 min; t1/2 [5]: 31.3 min; t1/2 [6]: 1.0 min; t1/2 [7]: 96.4 min; Kd [8]: 3.4 nM; t1/2 [9]: 19.1 min; t1/2 [10]: 26.7 min; t1/2 [11]: 19.2 min; Kd [12]: 22 nM; t1/2 [13]: 172.1 min; t1/2 [14]: 24.2 min; Kd [15]: 2.1 nM; Kd [16]: 1.4 nM |
| COc1ccc2c(c1)C=C1Cn3c-2c(C2CCCCC2)c2ccc(cc23)C(=O)NS(=O)(=O)N2CCN(CCNC1=O)CC2 [Compound 5] | 920 | IC50 [18]: 290 nM |
| COc1ccc2c(c1)C=C1Cn3c-2c(C2CCCCC2)c2ccc(cc23)C(=O)NS(=O)(=O)N(C)CCN(C)CCNC1=O [Compound 6] | 550 | – |
| COc1ccc2c(c1)[C@@H]1C[C@]13Cn1c-2c(C2CCCCC2)c2ccc(cc21)C(=O)NS(=O)(=O)N(C)CCOCCN(C)C3=O [Compound 8, (1aR,12bS)-8-cyclohexyl-11-methoxy-16,22-dimethyl-1,12b-dihydro-5,1a-(methanoiminothioiminoethanooxyethanoiminomethano)cyclopropa[d]-indolo[2,1-a][2]benzazepine-13,23(2H)-dione 15,15-dioxide] | 40 | – |
| COc1ccc2c(c1)[C@H]1C[C@@]13Cn1c-2c(C2CCCCC2)c2ccc(cc21)C(=O)NS(=O)(=O)N(C)CCOCCN(C)C3=O [Compound 9, (1 aS,12bR)-8-cyclohexyl-11-methoxy-16,22-dimethyl-1,12b-dihydro-5,1a-(methanoiminothioiminoethanooxyethanoiminomethano)cyclopropa[d]indolo-[2,1-a][2]benzazepine-13,23(2H)-dione 15,15-dioxide] | 800 | – |
| COc1ccc2c(c1)C1CC13Cn1c-2c(C2CCCCC2)c2ccc(cc21)C(=O)NS(=O)(=O)N(C)CCCCNC3=O (stereo not shown) [Compound 10, 8-cyclohexyl-11-methoxy-16-methyl-1,12b-dihydro-5,1a-(methanoiminothioiminobutanoimino)cyclopropa[d]indolo[2,1-a][2]benzazepine-13,22(2H)-dione 15,15-dioxide] | 60 | IC50 [18]: 280 nM |
| COc1ccc2c(c1)C1CC13Cn1c-2c(C2CCCCC2)c2ccc(cc21)C(=O)NS(=O)(=O)N(C)CCN1CCN(CC1)C3=O (stereo not shown) [Compound 11, 31-cyclohexyl-8-methoxy-22-methyl-21-thia-1,13,20,22,25-pentaazaheptacyclo-[23.2.2.1^3,13.1^12,15.1^14,18.0^3,5.0^6,11]dotriaconta-6,8,10,12(31),14(30),15,17-heptaene-2,19-dione 21,21-dioxide] | 55 | IC50 [18]: 220 nM |
| COc1ccc2c(c1)C1CC13Cn1c-2c(C2CCCCC2)c2ccc(cc21)C(=O)NS(=O)(=O)N(C)C/C=C/CCNC3=O (stereo not shown) [Compound 12, 8-cyclohexyl-11-methoxy-16-methyl-1,12b-dihydro-5,1a-(methaniminothio-iminopent[2]enoiminomethano)cyclopropa[d]indolo[2,1-a][2]benzazepine-13,23(2H)-dione 15,15-dioxide] | 290 | IC50 [18]: 930 nM |
| COc1ccc2c(c1)C=C1Cn3c-2c(C2CCCCC2)c2ccc(cc23)C(=O)NS(=O)(=O)N(C)CC=CCNC1=O [Compound 13] | 390 | IC50 [18]: 190 nM |
| COc1ccc2c(c1)C=C1Cn3c-2c(C2CCCCC2)c2ccc(cc23)C(=O)NS(=O)(=O)N(C)CCN2CCN(CC2)C1=O [Compound 15] | 180 | – |
| COc1ccc2c(c1)C(C)=C1Cn3c-2c(C2CCCCC2)c2ccc(cc23)C(=O)NS(=O)(=O)N(C)CCOCCN(C)C1=O [Compound 16] | 78 | – |
| COc1ccc2c(c1)C(C)=C1Cn3c-2c(C2CCCCC2)c2ccc(cc23)C(=O)NS(=O)(=O)N(C)CCCCN(C)C1=O [Compound 17] | 170 | – |
| COc1ccc2c(c1)C=C1Cn3c-2c(C2CCCCC2)c2ccc(cc23)C(=O)NS(=O)(=O)N(C)CCCCN(C)C1=O [Compound 18] | 79 | – |
| CN1CCOCCN(C)S(=O)(=O)NC(=O)c2ccc3c(C4CCCCC4)c4n(c3c2)CC(=Cc2cc(F)ccc2-4)C1=O [Compound 19] | 72 | IC50 [19]: 31 nM |
| CC1=C2Cn3c(c(C4CCCCC4)c4ccc(cc43)C(=O)NS(=O)(=O)N(C)CCOCCN(C)C2=O)-c2ccc(F)cc21 [Compound 20] | 81 | IC50 [19]: 38 nM |
| CN1CCOCCN(C)S(=O)(=O)NC(=O)c2ccc3c(C4CCCCC4)c4n(c3c2)CC(=Cc2cc(Cl)ccc2-4)C1=O [Compound 21] | 280 | – |
| COc1ccc2c(c1)C=C1Cn3c-2c(C2CCCCC2)c2ccc(cc23)C(=O)NS(=O)(=O)N(C)CCCCCCN(C)C1=O [Compound 22] | 160 | – |
| COc1ccc2c(c1)C=C1Cn3c-2c(C2CCCCC2)c2ccc(cc23)C(=O)NS(=O)(=O)NCCN(C)CCNC1=O [Compound 23] | 470 | – |
| CN1CCCCN(C)S(=O)(=O)NC(=O)c2ccc3c(C4CCCCC4)c4n(c3c2)CC(=Cc2ccc(Cl)cc2-4)C1=O [Compound 24] | 14500 | – |
| COc1ccc2c(c1)C=C1Cn3c-2c(C2CCCCC2)c2ccc(cc23)C(=O)NS(=O)(=O)NCCCCN(C)C1=O [Compound 25] | 550 | – |
| COc1ccc2c(c1)C=C1Cn3c-2c(C2CCCCC2)c2ccc(cc23)C(=O)NS(=O)(=O)N(C)CCCCCNC1=O [Compound 26] | 130 | – |
| CN1CCCCCNC(=O)C2=Cc3ccc(Cl)cc3-c3c(C4CCCCC4)c4ccc(cc4n3C2)C(=O)NS1(=O)=O [Compound 27] | 10200 | – |
| COc1ccc2c(c1)C=C1Cn3c-2c(C2CCCCC2)c2ccc(cc23)C(=O)NS(=O)(=O)N(C(C)C)CCCCN(C)C1=O [Compound 28] | 330 | – |
| COc1ccc2c(c1)C=C1Cn3c-2c(C2CCCCC2)c2ccc(cc23)C(=O)NS(=O)(=O)N(C)CCCCNC1=O [Compound 38] | 912 | – |

Source: patent US9427440B2, “Macrocyclic indole derivatives useful as hepatitis C virus inhibitors” (Janssen Sciences Ireland UC, priority 2008, dated 2016)
